From ChEMBL document CHEMBL1148302, “Discovery of diarylacrylonitriles as a novel series of small molecule sortase A inhibitors” (J Med Chem, 2004)

The compounds below were run against T1, Sortase A (Staphylococcus aureus, UniProt Q9S446) (assay: Inhibitory activity towards SrtA (sortase A)).
T1 sequence (Q9S446 whole entry): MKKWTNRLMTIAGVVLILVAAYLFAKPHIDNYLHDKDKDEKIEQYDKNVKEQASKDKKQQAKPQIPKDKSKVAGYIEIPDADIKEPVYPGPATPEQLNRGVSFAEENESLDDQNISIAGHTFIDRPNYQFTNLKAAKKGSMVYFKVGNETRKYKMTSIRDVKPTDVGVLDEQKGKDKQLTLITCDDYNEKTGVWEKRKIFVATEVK

Row | SMILES | IC50 [µM]
1 | COc1ccc(/C(C#N)=C/c2ccc(OC)c(OC)c2)cc1 | 23
2 | COc1ccc(/C=C(\C#N)c2ccc(OC)cc2)cc1 | 27.9
3 | COc1ccc(/C(C#N)=C/c2cc(OC)cc(OC)c2)cc1 | 25.5
4 | COC(=O)C(Cc1ccc(OC)cc1)c1ccc(OC)cc1 (stereo unspecified) | > 1000
5 | COc1ccc(CC(C#N)c2ccc(OC)cc2)cc1 (stereo unspecified) | > 1000
6 | COc1ccc(/C(C#N)=C/c2ccccc2OC)cc1 | 36.2
7 | COc1ccc(/C(C#N)=C/c2cc(OC)ccc2OC)cc1 | 9.24
8 | COc1ccc(/C=C(/C(N)=O)c2ccc(OC)cc2)cc1 | 476
9 | COc1ccc(CCc2ccc(OC)cc2)cc1 | > 1000
10 | COc1ccc(/C=C/c2ccc(OC)cc2)cc1 | > 1000
11 | COc1ccc(/C=C\c2ccc(OC)cc2)cc1 | > 1000
12 | COc1ccc(/C=C(/C#N)c2ccc(OC)cc2)cc1 | 187
13 | COc1ccc(/C(C#N)=C/c2cccc(OC)c2)cc1 | 17.4
14 | COC(=O)/C(=C\c1ccc(OC)cc1)c1ccc(OC)cc1 | 909
15 | COC(=O)/C(=C/c1ccc(OC)cc1)c1ccc(OC)cc1 | 231
16 | COc1ccc(/C=C(/C(=O)O)c2ccc(OC)cc2)cc1 | > 1000
